From patent US20110178118A1, “PALONOSETRON FOR THE TREATMENT OF CHEMOTHERAPY INDUCED EMESES” (priority 2002, published 2011)
Like-named read-outs stand apart in the source and are kept apart here. Marks after values point to notes of the source that are not given here.

Assays:
[1] = test system: cisplatin-induced emesis; test: Duration of action in cisplatin-treated dogs; assay type: in vivo
Procedure: Mean numbers of episodes were computed and the statistical significance of differences between treatment groups were determined with Dunnett's t test. Solutions of palonosetron and comparator drugs (ondansetron and granisetron) were prepared in distilled water. Vehicle control groups received distilled water.

[2] = test system: cisplatin-induced emesis; test: Reversal of cisplatin-induced emesis, intravenous antiemetic one hour after cisplatin; assay type: in vivo, dogs; conditions: for Emetic Episodes (mean ± SD): observed five hours
Procedure: (§1) The antiemetic effects of intravenously and orally administered palonosetron were assessed in male and female dogs (sexes combined). Antineoplastic agents employed in these experiments included cisplatin (3 mg/kg)), dacarbazine (30 mg/kg), mechlorethamine (0.4 mg/kg) and actinomycin D (0.15 mg/kg). […] Mean numbers of episodes were computed and the statistical significance of differences between treatment groups were determined with Dunnett's t test. Solutions of palonosetron and comparator drugs (ondansetron and granisetron) were prepared in distilled water. Vehicle control groups received distilled water. In a different study, palonosetron and ondansetron were assessed for their relative abilities to reverse cisplatin-induced emesis. In these experiments dogs received intravenous injections of palonosetron, ondansetron, or vehicle one hour after the intravenous administration of 3.0 mg/kg cisplatin. Each animal was observed continuously for five hours following cisplatin administration for the number of emetic episodes.

[3] = test system: Dacarbazine-Induced Emesis; test: Antagonism of dacarbazine-induced emesis; assay type: in vivo, dogs; conditions: 2 hours prior to dacarbazine 30.0 mg/kg IV, observed 5 hours
[4] = test system: Mechlorethamine-Induced Emesis; assay type: in vivo, dogs; conditions: 2 hours prior to mechlorethamine 0.4 mg/kg IV, observed 5 hours
[5] = test system: cisplatin-induced emesis; test: Anti-emetic effect, oral antiemetic one hour before cisplatin; assay type: in vivo, dogs; conditions: for Emetic Episodes (mean ± SD): observed five hours
Procedure: as §1, with “The observation of potency differential was further seen during an experiment in which oral dose-response relationships of” for “In a different study,”, “compared in cisplatin-treated dogs. Palonosetron, ondansetron” for “assessed for their relative abilities to reverse cisplatin-induced emesis. In these experiments dogs received intravenous injections of palonosetron, ondansetron,”, “vehicle control were administered by the oral route” for “vehicle”, “prior to” for “after”, “the” for “the intravenous”, “of” for “of 3.0 mg/kg”

[6] = test system: cisplatin-induced emesis; test: Intravenous palonosetron vs ondansetron in cisplatin-treated dogs; assay type: in vivo; conditions: 1.0 mg/kg intravenous; five-hour period following cisplatin 3.0 mg/kg
Procedure: The antiemetic effects of intravenously and orally administered palonosetron were assessed in male and female dogs (sexes combined). Antineoplastic agents employed in these experiments included cisplatin (3 mg/kg)), dacarbazine (30 mg/kg), mechlorethamine (0.4 mg/kg) and actinomycin D (0.15 mg/kg). […] Mean numbers of episodes were computed and the statistical significance of differences between treatment groups were determined with Dunnett's t test. Solutions of palonosetron and comparator drugs (ondansetron and granisetron) were prepared in distilled water. Vehicle control groups received distilled water. The therapeutic effects of intravenously and orally administered palonosetron were compared to those of ondansetron and vehicle in cisplatin-treated dogs.

[7] = test system: Actinomycin D-Induced Emesis; test: Antagonism of actinomycin D-induced emesis; assay type: in vivo, dogs; conditions: 2 hours prior to actinomycin D 0.15 mg/kg IV, observed 5 hours
[8] = intravenous antiemetic 0.01 mg/kg
[9] = intravenous antiemetic 0.03 mg/kg
[10] = intravenous antiemetic 0.1 mg/kg
[11] = intravenous antiemetic 0.3 mg/kg

Compound: Cc1nccn1CC1CCc2c(c3ccccc3n2C)C1=O (centres unmarked) [Ondansetron, reference compound]
- pretreatment time before cisplatin with reduced emetic episodes ([1]; 0.15 mg/kg IV): only after a one-hour pretreatment period
- Emetic Episodes (mean ± SD) ([1]; 0.15 mg/kg IV, 1 hr pre-cisplatin 3.0 mg/kg IV): 7.83 ± 4.12^b
- Emetic Episodes (mean ± SD) ([1]; 0.15 mg/kg IV, 2 hr pre-cisplatin 3.0 mg/kg IV): 10.67 ± 5.28
- Emetic Episodes (mean ± SD) ([1]; 0.15 mg/kg IV, 4 hr pre-cisplatin 3.0 mg/kg IV): 12.67 ± 2.07
- Emetic Episodes (mean ± SD) ([1]; 0.15 mg/kg IV, 6 hr pre-cisplatin 3.0 mg/kg IV): 14.17 ± 6.79
- Emetic Episodes (mean ± SD) ([1]; 0.15 mg/kg IV, 8 hr pre-cisplatin 3.0 mg/kg IV): 15.50 ± 7.29
- Emetic Episodes (mean ± SD) ([1]; 0.15 mg/kg IV, 10 hr pre-cisplatin 3.0 mg/kg IV): 13.83 ± 4.58
- Emetic Episodes (mean ± SD) ([1]; 0.15 mg/kg IV, 12 hr pre-cisplatin 3.0 mg/kg IV): 22.00 ± 8.32
- protective effects, pretreatment time prior to cisplatin ([1]; earlier experiment, 0.3 mg/kg, IV): as long as seven hours
- Emetic Episodes (mean ± SD) ([2]; intravenous dose 1.0 μg/kg one hour after cisplatin 3.0 mg/kg IV): 16.16 ± 5.14 ^
- Emetic Episodes (mean ± SD) ([2]; intravenous dose 3.0 μg/kg one hour after cisplatin 3.0 mg/kg IV): 13.33 ± 4.17 ^
- Emetic Episodes (mean ± SD) ([2]; intravenous dose 10.0 μg/kg one hour after cisplatin 3.0 mg/kg IV): 13.33 ± 3.01 ^
- Emetic Episodes (mean ± SD) ([2]; intravenous dose 30.0 μg/kg one hour after cisplatin 3.0 mg/kg IV): 8.33 ± 3.20^
- Emetic Episodes (mean ± SD) ([2]; intravenous dose 100.0 μg/kg one hour after cisplatin 3.0 mg/kg IV): 4.83 ± 2.40^b
- Emetic Episodes (mean ± SD) ([2]; intravenous dose 300.0 μg/kg one hour after cisplatin 3.0 mg/kg IV): 1.00 ± 2.00^b
- Emetic Episodes (mean ± SD) ([2]; intravenous dose 1000.0 μg/kg one hour after cisplatin 3.0 mg/kg IV): 1.16 ± 0.40^b
- statistically minimally effective dose level ([2]; intravenous, one hour after cisplatin): 0.1 mg/kg
- Emetic Episodes (mean ± SD) [3, 8]: 11.50 ± 5.51 ^
- Emetic Episodes (mean ± SD) [3, 9]: 8.17 ± 2.79^
- Emetic Episodes (mean ± SD) [3, 10]: 4.83 ± 2.48^d
- Emetic Episodes (mean ± SD) [3, 11]: 1.33 ± 0.82^d
- Emetic Episodes (mean ± SD) ([3]; oral antiemetic 0.03 mg/kg): 10.83 ± 2.72 ^
- Emetic Episodes (mean ± SD) ([3]; oral antiemetic 0.1 mg/kg): 6.17 ± 5.35^d
- Emetic Episodes (mean ± SD) ([3]; oral antiemetic 0.3 mg/kg): 3.00 ± 3.03^d
- Emetic Episodes (mean ± SD) ([3]; oral antiemetic 1 mg/kg): 0.17 ± 0.41^d
- Emetic Episodes (mean ± SD) [4, 8]: 5.83 ± 4.31
- Emetic Episodes (mean ± SD) [4, 9]: 3.50 ± 2.07^c
- Emetic Episodes (mean ± SD) [4, 10]: 5.33 ± 4.68
- Emetic Episodes (mean ± SD) [4, 11]: 4.67 ± 1.63^c
- Emetic Episodes (mean ± SD) ([4]; oral antiemetic 0.03 mg/kg): 5.67 ± 2.50
- Emetic Episodes (mean ± SD) ([4]; oral antiemetic 0.1 mg/kg): 8.50 ± 3.15
- Emetic Episodes (mean ± SD) ([4]; oral antiemetic 0.3 mg/kg): 2.83 ± 3.71^d
- Emetic Episodes (mean ± SD) ([4]; oral antiemetic 1 mg/kg): 0.00 ± 0.00^d
- Emetic Episodes (mean ± SD) ([5]; oral dose 1.0 μg/kg one hour before cisplatin): 15.50 ± 3.93
- Emetic Episodes (mean ± SD) ([5]; oral dose 3.0 μg/kg one hour before cisplatin): 14.83 ± 6.49
- Emetic Episodes (mean ± SD) ([5]; oral dose 10.0 μg/kg one hour before cisplatin): 12.66 ± 3.01
- Emetic Episodes (mean ± SD) ([5]; oral dose 30.0 μg/kg one hour before cisplatin): 18.33 ± 8.43
- Emetic Episodes (mean ± SD) ([5]; oral dose 100.0 μg/kg one hour before cisplatin): 10.50 ± 3.14
- Emetic Episodes (mean ± SD) ([5]; oral dose 300.0 μg/kg one hour before cisplatin): 3.16 ± 1.32^a
- Emetic Episodes (mean ± SD) ([5]; oral dose 1000.0 μg/kg one hour before cisplatin): 2.00 ± 2.09^a
- minimally effective dose (significant reduction in episodes) ([5]; oral, one hour before cisplatin): 0.3 mg/kg
- mean number of emetic episodes [6]: 6.83
- Emetic Episodes (mean ± SD) [7, 8]: 7.67 ± 2.25^d
- Emetic Episodes (mean ± SD) [7, 9]: 14.67 ± 4.68 ^
- Emetic Episodes (mean ± SD) [7, 10]: 12.67 ± 3.45 ^
- Emetic Episodes (mean ± SD) [7, 11]: 5.83 ± 4.45^d
- Emetic Episodes (mean ± SD) ([7]; oral antiemetic 0.03 mg/kg): 9.83 ± 7.52^
- Emetic Episodes (mean ± SD) ([7]; oral antiemetic 0.1 mg/kg): 10.33 ± 4.84 ^
- Emetic Episodes (mean ± SD) ([7]; oral antiemetic 0.3 mg/kg, one dog dropped): 4.20 ± 1.92^d
- Emetic Episodes (mean ± SD) ([7]; oral antiemetic 1 mg/kg): 1.50 ± 1.38^d
